The term inhibition denotes the percentage by which the read-out fell short of the control. For orientation: IC50 means the midpoint of a concentration-inhibition curve.

The source of these data is ChEMBL document CHEMBL5543059, “Discovery of anti-inflammatory natural flavonoids: Diverse scaffolds and promising leads for drug discovery” (Eur J Med Chem, 2023).

Assay [1] addresses T1, Inhibitor of nuclear factor kappa-B kinase subunit beta (Homo sapiens) (UniProt O14920).
T1 sequence (whole entry): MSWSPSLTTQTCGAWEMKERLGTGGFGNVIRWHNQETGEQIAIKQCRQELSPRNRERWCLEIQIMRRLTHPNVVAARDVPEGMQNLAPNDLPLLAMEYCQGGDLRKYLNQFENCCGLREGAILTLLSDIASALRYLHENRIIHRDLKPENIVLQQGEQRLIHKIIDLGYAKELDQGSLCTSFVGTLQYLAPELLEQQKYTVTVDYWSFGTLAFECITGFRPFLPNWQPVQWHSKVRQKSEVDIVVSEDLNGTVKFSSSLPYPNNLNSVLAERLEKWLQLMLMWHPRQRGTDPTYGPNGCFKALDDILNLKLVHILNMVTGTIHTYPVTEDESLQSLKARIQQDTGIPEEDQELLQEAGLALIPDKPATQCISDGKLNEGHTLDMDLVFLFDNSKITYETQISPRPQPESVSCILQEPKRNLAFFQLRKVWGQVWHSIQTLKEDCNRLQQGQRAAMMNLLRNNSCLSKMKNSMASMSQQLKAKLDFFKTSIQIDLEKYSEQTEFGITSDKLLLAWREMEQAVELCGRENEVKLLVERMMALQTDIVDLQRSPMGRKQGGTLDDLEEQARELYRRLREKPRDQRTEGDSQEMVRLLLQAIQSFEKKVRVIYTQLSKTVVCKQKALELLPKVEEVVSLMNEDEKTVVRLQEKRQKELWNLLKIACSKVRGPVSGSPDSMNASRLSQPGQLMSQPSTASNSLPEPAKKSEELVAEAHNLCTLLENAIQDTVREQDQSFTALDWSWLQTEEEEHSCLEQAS
Nature of the assay: Inhibition of IKKbeta phosphorylation in high glucose-induced HUVEC cells at 0.1 uM relative to control. It counts as cell-based.

The test system of assay [2] is Rat aortic endothelial cell. In words: Inhibition of NF-kappaB p65 phosphorylation in high glucose-induced Rat aortic endothelial cell at 10 uM relative to control. In kind it is cell-based.
Assay [3] has as its system Rat aortic endothelial cell. Nature of the assay: Inhibition of NF-kappaB p65 phosphorylation in high glucose-induced Rat aortic endothelial cell at 0.1 uM relative to control. It counts as cell-based.
Assay [4] concerns the target T1, Inhibitor of nuclear factor kappa-B kinase subunit beta (Homo sapiens). In words: Inhibition of IKKbeta phosphorylation in high glucose-induced HUVEC cells at 10 uM relative to control. In kind it is cell-based.
The subject of assay [5] is Rat aortic endothelial cell. In words: Inhibition of NF-kappaB p65 phosphorylation in high glucose-induced Rat aortic endothelial cell at 1 uM relative to control. It counts as cell-based.
Assay [6] concerns the target T1, Inhibitor of nuclear factor kappa-B kinase subunit beta (Homo sapiens). In words: Inhibition of IKKbeta phosphorylation in high glucose-induced HUVEC cells at 1 uM relative to control. It counts as cell-based.
Assay [7] deals with RAW264.7. Nature of the assay: Anti-inflammatory activity against mouse RAW264.7 cells assessed as reduction in NO production pre-incubated with compound for 1 hrs followed by LPS-stimulation and measured for 1 hrs by […]. In kind it is functional, cell-based. In general terms: Immunoblotting shows a protein as a band on a membrane.
The nature of assay [8]: Inhibition of nitric oxide synthase (unknown origin). Also on record: species or system Homo sapiens.
Assay [9] deals with RAW264.7. In words: Anti-inflammatory activity in LPS-stimulated mouse RAW264.7 cells assessed as inhibition of NO production by Griess reagent based assay. It counts as functional, cell-based. On the technique in general: Griess reagent forms a coloured azo dye with nitrite.
The subject of assay [10] is RAW264.7. Nature of the assay: Anti-inflammatory activity in LPS-stimulated mouse RAW264.7 cells assessed as inhibition of NO production by Griess reagent based analysis. In kind it is functional, cell-based.
Assay [11] deals with Rattus norvegicus. Nature of the assay: Anti-inflammatory activity against LPS-induced paw edema in Sprague-Dawley rat assessed as inhibition of paw edema. It counts as functional.
Assay [12] has as its system RAW264.7. Nature of the assay: Anti-inflammatory activity in mouse RAW264.7 cells assessed as inhibition of LPS-induced TNF-alpha production at 50 microg/ml relative to control. In kind it is functional. Also on record: scale not given: the % may be the effect or the level left. The note with it: dose 50 µg/ml.
In assay [13] the test system is RAW264.7. Nature of the assay: Anti-inflammatory activity in LPS-stimulated mouse RAW264.7 cells assessed as reduction in NO production incubated for 24 hrs by Griess reagent based assay. In kind it is functional, cell-based. The following applies: RAW264.7, 24 h.
Assay [14] has as its system RAW264.7. Nature of the assay: Anti-inflammatory activity in mouse RAW264.7 cells assessed as inhibition of LPS-induced IL-6 production at 50 microg/ml relative to control. The following applies: dose 50 µg/ml. Also on record: scale not given: the % may be the effect or the level left. It counts as functional.
Assay [15] has as its system Neutrophil. In words: Inhibition of fMLF-induced chemotaxis in human neutrophils pretreated for 45 mins followed by fMLF-stimulation measured for 1 hr by luminescence based analysis. It counts as functional, cell-based.
The test system of assay [16] is Mus musculus. Nature of the assay: Antiinflammatory activity in carrageenan-induced Kunming mouse model of paw edema assessed as paw volume at 1 mg/kg, ip pre-incubated for 1 hr followed by carrageenan administration measured for 60 mins relative to control. In kind it is functional. The following applies: time 2 hrs.
The subject of assay [17] is Mus musculus. In words: Analgesic activity against acetic acid-induced BALB/c writhing mouse model assessed as inhibition of writhing at 10 mg/kg, ip pre-incubated for 30 mins followed by acetic acid addition and measured after 15 mins relative to control. In kind it is functional. Also on record: scale not given: the % may be the effect or the level left. The note with it: time 45 min, 0.75 h. In general terms: Writhing tests count abdominal constrictions after an irritant is injected.

Assay [18] concerns BV-2. Nature of the assay: Anti-inflammatory activity against LPS-induced mouse BV-2 cells assessed as reduction in IL-6 production at 10 uM pre-incubated for 30 mins followed by LPS-stimulation and measured after 6 hrs by RT-PCR analysis. In kind it is functional. Also on record: scale not given: the % may be the effect or the level left. The following applies: time 390 min, 6.5 h.

The test system of assay [19] is BV-2. In words: Anti-inflammatory activity against LPS-induced mouse BV-2 cells assessed as inhibition of COX-2 level at 12.5 microg/ml pre-incubated for 30 mins followed by LPS-stimulation and measured after 6 hrs by RT-PCR analysis. In kind it is functional. The following applies: dose 12.5 µg/ml; time 390 min; 6.5 h. Also on record: scale not given: the % may be the effect or the level left.

In assay [20] the test system is BV-2. Nature of the assay: Anti-inflammatory activity against LPS-induced mouse BV-2 cells assessed as reduction in Interleukin-1beta production at 10 uM pre-incubated for 30 mins followed by LPS-stimulation and measured after 6 hrs by RT-PCR analysis. The note with it: time 390 min, 6.5 h. In kind it is functional. Also on record: scale not given: the % may be the effect or the level left.

Assay [21] deals with RAW264.7. In words: Anti-inflammatory activity against mouse RAW264.7 cells assessed as inhibition of LPS-induced NO production. In kind it is functional, cell-based.
Assay [22] relates to BV-2. In words: Anti-inflammatory activity against LPS-induced mouse BV-2 cells assessed as inhibition of 5-lipoxygenase level at 25 microg/ml pre-incubated for 30 mins followed by LPS-stimulation and measured after 6 hrs by RT-PCR analysis. It counts as functional. Also on record: scale not given: the % may be the effect or the level left. The note with it: dose 25 µg/ml; time 390 min; 6.5 h.

Assay [23] deals with RAW264.7. Nature of the assay: Anti-inflammatory activity against mouse RAW264.7 cells assessed as inhibition of LPS-induced NO production pre-treated with compound for 1 hr followed by LPS-stimulation and measured for 1 hr. It counts as functional, cell-based.
The test system of assay [24] is RAW264.7. In words: Anti-inflammatory activity against mouse RAW264.7 cells assessed as inhibition of IL-1beta level incubated for 18 hrs by ELISA analysis. It counts as functional, cell-based. The following applies: RAW264.7, 18 h.
The test system of assay [25] is Rattus norvegicus. In words: Anti-inflammatory activity in LPS-induced Sprague-Dawley rat assessed as reduction in TNF-alpha level at 20 mg/kg, po pre-incubated for 1 hr with compound followed by LPS-stimulation measured for 24 hrs by ELISA analysis. It counts as functional. Also on record: scale not given: the % may be the effect or the level left. The following applies: time 25 hrs.

Assay [26] concerns RAW264.7. Nature of the assay: Anti-inflammatory activity against mouse RAW264.7 cells assessed as inhibition of TNF-alpha production incubated for 18 hrs by ELISA analysis. It counts as functional, cell-based. The following applies: RAW264.7, 18 h.
Assay [27] has as its system RAW264.7. In words: Antiinflammatory activity against mouse RAW264.7 cells assessed as inhibition of LPS-stimulated IL-1beta level by ELISA method. It counts as functional, cell-based.
Assay [28] concerns J774.A1. In words: Antiinflammatory activity against mouse J774.A1 cells assessed as inhibition of LPS-stimulated IL-1beta level by ELISA method. It counts as functional, cell-based.
Assay [29] has as its system RAW264.7. In words: Antiinflammatory activity against mouse RAW264.7 cells assessed as inhibition of LPS-stimulated TNF-alpha level by ELISA method. In kind it is functional, cell-based.
In assay [30] the test system is J774.A1. In words: Antiinflammatory activity against mouse J774.A1 cells assessed as inhibition of LPS-stimulated TNF-alpha level by ELISA method. In kind it is functional, cell-based. The following applies: Mus musculus, J774.A1; read-out: IC50.
The test system of assay [31] is Rattus norvegicus. Nature of the assay: Anti-inflammatory activity in LPS-induced Sprague-Dawley rat assessed as reduction in IL-1beta level at 20 mg/kg, po pre-incubated for 1 hr with compound followed by LPS-stimulation measured for 24 hrs by ELISA analysis. In kind it is functional. Also on record: scale not given: the % may be the effect or the level left. The note with it: time 25 hrs.

Take `COc1c(O)cc2oc(-c3ccc(O)cc3)cc(=O)c2c1O`: the inhibition came out at 23.2% in assay [1]; 93.2% in [2]; 26.1% in [3]; 88.4% in assay [4]; 57.4% in [5]; 53.6% in [6].
With `O=C1C[C@@H](c2ccc(O)cc2)Oc2cc(O)ccc21` [LIQUIRTIGENIN], the IC50 was 16.3 µM in [7] and 19.1 µM in assay [8].
For the compound `COc1cc(-c2cc(=O)c3c(O)cc(O)cc3o2)cc(OC)c1O` [TRICIN], the IC50 in [9] worked out at 46.4 µM; in [10], 28 µM.
For the compound `COc1ccc(-c2cc(=O)c3c(O)c(OC)c(O)cc3o2)cc1OC` [EUPATILIN], in assay [11], the ID50 is 0.28 umol/cm2.
With `O=c1cc(-c2ccc(O)c(O)c2)oc2cc(O)cc(O)c12` [LUTEOLIN], the Activity in [12] stood at 38%; in assay [14], 37%. The IC50 in [13] came out at 1.2 µM.
In the case of `O=c1cc(-c2ccccc2)oc2cc(O)cc(O)c12` [CHRYSIN], the IC50 in assay [15] came out at 2.25 µM. Besides, the Activity in assay [16] is recorded as 25%; in [17], 56%.
As for `O=c1cc(-c2ccc(O)cc2)oc2cc(O)cc(O)c12` [APIGENIN], the Activity in [18] is listed as 68%; in [19] it was 89.2%; in assay [20] it was 68%; in [22], 88.3%. The half-maximal inhibitory concentration (IC50) in assay [21] worked out at 12.2 µM.
Turning to `CC(C)=CCC/C(C)=C/Cc1c(O)ccc2c1O[C@H](c1ccc(O)cc1)CC2=O`, the IC50 in assay [23] amounted to 8.13 µM.
Regarding `COc1cc(O)c2c(c1)OC(c1ccccc1)CC2=O` (stereo unspecified), the IC50 in [24] is 40 µM; in [26], below 22 µM; in assay [27] it was 17.3 µM; in [28] it was 19.6 µM; in assay [29], 23.5 µM; in assay [30], 37.5 µM. In addition, the values for the Activity in [25] and in [31] were 48.6% and 53.1%, respectively.
